From US11306101B2 (Celgene Corporation, priority 2019, dated 2022) come the findings set out here.

One may read the DC50 as the midpoint of the concentration-degradation curve. Higher therefore signals a less potent degrader.

For the assay, the target named is T1, CK1α (Homo sapiens, UniProt P48729+Q96SW2).
T1 construct: expressed in transfected cells
Kind of assay: CK1α ePL degradation assay in MDS-L cells. Format: cell-based. The settings on record: MDS-L cells expressing ePL-tagged CK1α; for DC50: concentration giving 50% CK1α degradation vs DMSO control; for Y: lowest measured CK1α level normalized to DMSO control. Summed up:
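Degradation efficiency is reported as Y value, the minimum CK1α level (percent of DMSO control) across doses. Readout used InCELL Hunter luminescent detection after MDS-L cell exposure at 37° C for stated times, doses 10 μM down to 0.0005 μM in 3-fold steps.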

T1 sequence (P48729 whole entry): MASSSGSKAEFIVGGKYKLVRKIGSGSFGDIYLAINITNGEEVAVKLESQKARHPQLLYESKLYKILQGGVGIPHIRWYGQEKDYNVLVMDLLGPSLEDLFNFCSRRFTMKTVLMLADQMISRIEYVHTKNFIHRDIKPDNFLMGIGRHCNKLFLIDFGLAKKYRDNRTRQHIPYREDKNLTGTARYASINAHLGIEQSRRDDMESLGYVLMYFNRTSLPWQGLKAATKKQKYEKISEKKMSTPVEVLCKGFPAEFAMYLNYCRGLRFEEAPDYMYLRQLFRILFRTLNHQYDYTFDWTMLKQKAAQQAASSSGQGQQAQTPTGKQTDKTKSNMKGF
T1 sequence (Q96SW2 whole entry): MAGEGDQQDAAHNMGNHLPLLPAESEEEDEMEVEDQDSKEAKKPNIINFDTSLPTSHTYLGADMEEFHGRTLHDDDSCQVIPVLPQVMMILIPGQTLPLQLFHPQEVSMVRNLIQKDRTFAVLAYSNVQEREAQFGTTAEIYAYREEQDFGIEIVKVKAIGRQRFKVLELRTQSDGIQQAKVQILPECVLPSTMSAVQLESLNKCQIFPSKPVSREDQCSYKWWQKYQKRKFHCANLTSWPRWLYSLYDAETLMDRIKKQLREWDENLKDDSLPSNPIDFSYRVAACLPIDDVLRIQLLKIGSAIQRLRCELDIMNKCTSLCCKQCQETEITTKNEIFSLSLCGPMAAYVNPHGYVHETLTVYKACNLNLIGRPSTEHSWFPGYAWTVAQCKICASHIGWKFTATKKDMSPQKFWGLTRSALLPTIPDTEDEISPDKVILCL
T1 sequence (Q16531 whole entry partner): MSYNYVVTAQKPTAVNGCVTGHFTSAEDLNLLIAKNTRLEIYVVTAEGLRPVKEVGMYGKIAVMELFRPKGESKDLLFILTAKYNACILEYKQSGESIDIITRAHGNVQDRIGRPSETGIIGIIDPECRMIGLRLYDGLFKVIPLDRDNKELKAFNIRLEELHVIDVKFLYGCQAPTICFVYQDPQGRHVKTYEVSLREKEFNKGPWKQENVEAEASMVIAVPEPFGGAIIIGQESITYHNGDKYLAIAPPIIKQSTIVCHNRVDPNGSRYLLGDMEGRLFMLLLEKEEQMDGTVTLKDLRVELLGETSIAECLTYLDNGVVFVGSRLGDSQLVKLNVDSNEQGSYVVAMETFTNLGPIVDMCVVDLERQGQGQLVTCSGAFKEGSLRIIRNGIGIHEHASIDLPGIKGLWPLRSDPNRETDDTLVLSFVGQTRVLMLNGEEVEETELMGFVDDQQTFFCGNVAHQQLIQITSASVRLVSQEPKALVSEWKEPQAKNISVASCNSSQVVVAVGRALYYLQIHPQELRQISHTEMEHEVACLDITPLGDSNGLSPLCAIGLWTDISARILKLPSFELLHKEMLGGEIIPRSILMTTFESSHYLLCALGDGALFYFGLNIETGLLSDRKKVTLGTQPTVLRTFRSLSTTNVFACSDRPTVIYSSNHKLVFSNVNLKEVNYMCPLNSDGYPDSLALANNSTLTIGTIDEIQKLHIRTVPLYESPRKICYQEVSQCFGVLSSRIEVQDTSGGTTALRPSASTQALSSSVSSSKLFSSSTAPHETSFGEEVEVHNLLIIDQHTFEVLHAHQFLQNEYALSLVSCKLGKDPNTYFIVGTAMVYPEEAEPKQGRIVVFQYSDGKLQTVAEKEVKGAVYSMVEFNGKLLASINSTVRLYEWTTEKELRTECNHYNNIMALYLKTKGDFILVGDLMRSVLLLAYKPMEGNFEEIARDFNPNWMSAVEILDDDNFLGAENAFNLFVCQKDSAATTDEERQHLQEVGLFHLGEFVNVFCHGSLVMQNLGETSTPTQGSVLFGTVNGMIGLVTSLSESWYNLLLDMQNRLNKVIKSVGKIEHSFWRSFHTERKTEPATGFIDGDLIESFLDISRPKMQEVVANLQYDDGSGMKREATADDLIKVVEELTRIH

Regarding `CN1CCN(Cc2ccc([C@@H](NC(=O)c3ccc4c(c3)CN(C3CCC(=O)NC3=O)C4=O)C(F)(F)F)cc2)CC1` (stereo partly drawn) [Example 185, 2-(2,6-dioxopiperidin-3-yl)-1-oxo-N-((R)-2,2,2-trifluoro-1-(4-((4-methylpiperazin-1-yl)methyl)phenyl)ethyl)isoindoline-5-carboxamide], the DC50 was 100 to 500 nM and the Y result is reported as “* (a Y value (shown as *) of 0<Y≤20%)”.
The like results for `CN(C)Cc1ccc([C@@H](NC(=O)c2ccc3c(c2F)CN(C2CCC(=O)NC2=O)C3=O)C(F)(F)F)cc1` (stereo partly drawn) [Example 186, N-((R)-1-(4-((dimethylamino)methyl)phenyl)-2,2,2-trifluoroethyl)-2-(2,6-dioxopiperidin-3-yl)-4-fluoro-1-oxoisoindoline-5-carboxamide] were, in that order, below 100 nM and “* (a Y value (shown as *) of 0<Y≤20%)”.
Take `O=C1CCC(N2Cc3cc(C(=O)N[C@H](CC(F)(F)F)c4ccccc4)ccc3C2=O)C(=O)N1` (stereo partly drawn) [Example 187, 2-(2,6-dioxopiperidin-3-yl)-1-oxo-N-((R)-3,3,3-trifluoro-1-phenylpropyl)isoindoline-5-carboxamide]: the DC50 lay in the range of 100 to 500 nM and the Y result is on record as “** (a Y value (shown as**) of 20%<Y≤35%)”.
The like results for `O=C1CCC(N2Cc3cc(C(=O)N[C@H](c4ccc(CN5CC(F)(F)C5)cc4)C(F)(F)F)ccc3C2=O)C(=O)N1` (stereo partly drawn) [Example 188, N-((R)-1-(4-((3,3-difluoroazetidin-1-yl)methyl)phenyl)-2,2,2-trifluoroethyl)-2-(2,6-dioxopiperidin-3-yl)-1-oxoisoindoline-5-carboxamide] were, in that order, 100 to 500 nM and “** (a Y value (shown as**) of 20%<Y≤35%)”.
The like results for `O=C1CCC(N2Cc3cc(C(=O)N[C@H](c4ccc(CN5CCC5)cc4)C(F)(F)F)ccc3C2=O)C(=O)N1` (stereo partly drawn) [Example 189, N-((R)-1-(4-(azetidin-1-ylmethyl)phenyl)-2,2,2-trifluoroethyl)-2-(2,6-dioxopiperidin-3-yl)-1-oxoisoindoline-5-carboxamide] were, in that order, below 100 nM and “* (a Y value (shown as *) of 0<Y≤20%)”.
As to `O=C1CCC(N2Cc3cc(C(=O)N[C@H](CC(F)(F)F)c4cccc(F)c4)ccc3C2=O)C(=O)N1` (stereo partly drawn) [Example 190, 2-(2,6-dioxopiperidin-3-yl)-1-oxo-N-((R)-3,3,3-trifluoro-1-(3-fluorophenyl)propyl)isoindoline-5-carboxamide], the DC50 is below 100 nM and the Y entry is given as “** (a Y value (shown as**) of 20%<Y≤35%)”.
The like results for `O=C1CCC(N2Cc3cc(C(=O)N[C@H](CC(F)(F)F)c4ccc(F)cc4)ccc3C2=O)C(=O)N1` (stereo partly drawn) [Example 191, 2-(2,6-dioxopiperidin-3-yl)-1-oxo-N-((R)-3,3,3-trifluoro-1-(4-fluorophenyl)propyl)isoindoline-5-carboxamide] were, in that order, 100 to 500 nM and “** (a Y value (shown as**) of 20%<Y≤35%)”.
The like results for `CN(C)Cc1ccccc1[C@@H](NC(=O)c1ccc2c(c1)CN(C1CCC(=O)NC1=O)C2=O)C(F)(F)F` (stereo partly drawn) [Example 192, N-((R)-1-(2-((dimethylamino)methyl)phenyl)-2,2,2-trifluoroethyl)-2-(2,6-dioxopiperidin-3-yl)-1-oxoisoindoline-5-carboxamide] were, in that order, below 100 nM and “* (a Y value (shown as *) of 0<Y≤20%)”.
Consider `O=C1CC[C@H](N2Cc3cc(C(=O)N[C@H](c4ncc(Cl)cc4F)C(F)(F)F)ccc3C2=O)C(=O)N1` [Example 193, N-((R)-1-(5-chloro-3-fluoropyridin-2-yl)-2,2,2-trifluoroethyl)-2-((S)-2,6-dioxopiperidin-3-yl)-1-oxoisoindoline-5-carboxamide], for which the DC50 was below 100 nM and the Y result was “* (a Y value (shown as *) of 0<Y≤20%)”.
The like results for `O=C1CCC(N2Cc3cc(C(=O)N[C@H](CC(F)(F)F)c4cccc(Cl)c4)ccc3C2=O)C(=O)N1` (stereo partly drawn) [Example 194, N-((R)-1-(3-chlorophenyl)-3,3,3-trifluoropropyl)-2-(2,6-dioxopiperidin-3-yl)-1-oxoisoindoline-5-carboxamide] were, in that order, below 100 nM and “** (a Y value (shown as**) of 20%<Y≤35%)”.
The like results for `O=C1CCC(N2Cc3cc(C(=O)N[C@H](CC(F)(F)F)c4ccccc4F)ccc3C2=O)C(=O)N1` (stereo partly drawn) [Example 195, 2-(2,6-dioxopiperidin-3-yl)-1-oxo-N-((R)-3,3,3-trifluoro-1-(2-fluorophenyl)propyl)isoindoline-5-carboxamide] were, in that order, below 100 nM and “* (a Y value (shown as *) of 0<Y≤20%)”.
On the same counts, the results for `Cc1ccccc1[C@@H](CC(F)(F)F)NC(=O)c1ccc2c(c1)CN(C1CCC(=O)NC1=O)C2=O` (stereo partly drawn) [Example 196, 2-(2,6-dioxopiperidin-3-yl)-1-oxo-N-((R)-3,3,3-trifluoro-1-o-tolylpropyl)isoindoline-5-carboxamide] are below 100 nM and “* (a Y value (shown as *) of 0<Y≤20%)”.
As for `O=C1CCC(N2Cc3cc(C(=O)N[C@@H](c4ccccc4F)C(F)(F)F)ccc3C2=O)C(=O)N1` (stereo partly drawn) [Example 197, 2-(2,6-dioxopiperidin-3-yl)-1-oxo-N-((S)-2,2,2-trifluoro-1-(2-fluorophenyl)ethyl)isoindoline-5-carboxamide], the DC50 lay within 500 to 1000 nM and the Y entry is “*** (a Y value (shown as***) of 35%<Y<50%)”.
The like results for `CN(C)Cc1ccc([C@@H](NC(=O)c2ccc3c(c2)CN(C2CCC(=O)NC2=O)C3=O)C(F)(F)F)c(Cl)c1` (stereo partly drawn) [Example 198, N-((R)-1-(2-chloro-4-((dimethylamino)methyl)phenyl)-2,2,2-trifluoroethyl)-2-(2,6-dioxopiperidin-3-yl)-1-oxoisoindoline-5-carboxamide] were, in that order, below 100 nM and “* (a Y value (shown as *) of 0<Y≤20%)”.
The like results for `Cc1cccnc1[C@@H](NC(=O)c1ccc2c(c1)CN(C1CCC(=O)NC1=O)C2=O)C(F)(F)F` (stereo partly drawn) [Example 199, 2-(2,6-dioxopiperidin-3-yl)-1-oxo-N-((R)-2,2,2-trifluoro-1-(3-methylpyridin-2-yl)ethyl)isoindoline-5-carboxamide] were, in that order, below 100 nM and “* (a Y value (shown as *) of 0<Y≤20%)”.
As for `COc1cccnc1[C@@H](NC(=O)c1ccc2c(c1)CN(C1CCC(=O)NC1=O)C2=O)C(F)(F)F` (stereo partly drawn) [Example 200, 2-(2,6-dioxopiperidin-3-yl)-1-oxo-N-((R)-2,2,2-trifluoro-1-(3-methoxypyridin-2-yl)ethyl)isoindoline-5-carboxamide], the DC50 was below 100 nM and the Y entry is reported as “* (a Y value (shown as *) of 0<Y≤20%)”.
The like results for `O=C1CCC(N2Cc3cc(C(=O)N[C@H](c4cccc(N5CCOCC5)c4)C(F)(F)F)ccc3C2=O)C(=O)N1` (stereo partly drawn) [Example 201, 2-(2,6-dioxopiperidin-3-yl)-1-oxo-N-((R)-2,2,2-trifluoro-1-(3-morpholinophenyl)ethyl)isoindoline-5-carboxamide] were, in that order, below 100 nM and “* (a Y value (shown as *) of 0<Y≤20%)”.
For the molecule `CN(C)Cc1cnc([C@@H](NC(=O)c2ccc3c(c2)CN(C2CCC(=O)NC2=O)C3=O)C(F)(F)F)c(Cl)c1` (stereo partly drawn) [Example 202, N-((R)-1-(3-chloro-5-((dimethylamino)methyl)pyridin-2-yl)-2,2,2-trifluoroethyl)-2-(2,6-dioxopiperidin-3-yl)-1-oxoisoindoline-5-carboxamide], the DC50 is below 100 nM and the Y result is given as “* (a Y value (shown as *) of 0<Y≤20%)”.
The like results for `O=C1CCC(N2Cc3cc(C(=O)N[C@H](c4c(F)cc(F)cc4Cl)C(F)(F)F)ccc3C2=O)C(=O)N1` (stereo partly drawn) [Example 203, N-((R)-1-(2-chloro-4,6-difluorophenyl)-2,2,2-trifluoroethyl)-2-(2,6-dioxopiperidin-3-yl)-1-oxoisoindoline-5-carboxamide] were, in that order, below 100 nM and “* (a Y value (shown as *) of 0<Y≤20%)”.
The like results for `O=C1CCC(N2Cc3cc(C(=O)N[C@H](c4ccc(N5CCOCC5)cc4)C(F)(F)F)ccc3C2=O)C(=O)N1` (stereo partly drawn) [Example 204, 2-(2,6-dioxopiperidin-3-yl)-1-oxo-N-((R)-2,2,2-trifluoro-1-(4-morpholinophenyl)ethyl)isoindoline-5-carboxamide] were, in that order, below 100 nM and “* (a Y value (shown as *) of 0<Y≤20%)”.
On the same counts, the results for `O=C1CCC(N2Cc3cc(C(=O)N[C@H](c4ccccc4N4CCOCC4)C(F)(F)F)ccc3C2=O)C(=O)N1` (stereo partly drawn) [Example 205, 2-(2,6-dioxopiperidin-3-yl)-1-oxo-N-((R)-2,2,2-trifluoro-1-(2-morpholinophenyl)ethyl)isoindoline-5-carboxamide] are below 100 nM and “* (a Y value (shown as *) of 0<Y≤20%)”.
Regarding `CN1CCN(c2ccccc2[C@@H](NC(=O)c2ccc3c(c2)CN(C2CCC(=O)NC2=O)C3=O)C(F)(F)F)CC1` (stereo partly drawn) [Example 206, 2-(2,6-dioxopiperidin-3-yl)-1-oxo-N-((R)-2,2,2-trifluoro-1-(2-(4-methylpiperazin-1-yl)phenyl)ethyl)isoindoline-5-carboxamide], the DC50 is below 100 nM and the Y entry is given as “* (a Y value (shown as *) of 0<Y≤20%)”.
The like results for `O=C1CC[C@H](N2Cc3cc(C(=O)N[C@H](c4ncc(Cl)cc4Cl)C(F)(F)F)ccc3C2=O)C(=O)N1` [Example 207, N-((R)-1-(3,5-dichloropyridin-2-yl)-2,2,2-trifluoroethyl)-2-((S)-2,6-dioxopiperidin-3-yl)-1-oxoisoindoline-5-carboxamide] were, in that order, below 100 nM and “* (a Y value (shown as *) of 0<Y≤20%)”.
On the same counts, the results for `CN1CCN(c2ccc([C@@H](NC(=O)c3ccc4c(c3)CN(C3CCC(=O)NC3=O)C4=O)C(F)(F)F)cc2)CC1` (stereo partly drawn) [Example 208, 2-(2,6-dioxopiperidin-3-yl)-1-oxo-N-((R)-2,2,2-trifluoro-1-(4-(4-methylpiperazin-1-yl)phenyl)ethyl)isoindoline-5-carboxamide] are below 100 nM and “* (a Y value (shown as *) of 0<Y≤20%)”.
